The values below come from patent publication US20210276960A1, “INHIBITORS OF TISSUE TRANSGLUTAMINASE 2 (TG2) AND USES THEREOF” (Northwestern University, priority 2020, published 2021).

In series [1] the test system is SKOV3 cells adhesion to collagen-1. Nature of the series: SKOV3 adhesion to collagen-1 coated wells. Format: cell-based. The following applies: 25 μM, collagen-1 20 μg/ml. How it is done: FIG. 13. Top SMIs inhibit cell adhesion to FN. A, Effects of top compounds (25 μM) on SKOV3 cells adhesion to FN. B, Dose-dependent effects (1-25 μM) of TG53 on SKOV3 cell adhesion to FN. […] D, Effects of TG53 (25 μM) on SKOV3 cells adhesion to wells coated with collagen-1 (20 μg/ml). E, Effects of TG53 (25 μM) on SKOV3-control or AS-TG2 cells adhesion to FN. Bars represent means+/−SEM of quadruplicate measurements. * denote p<0.05.
(§1) Cells labeled with calcein AM (Life Technologies, #L3224) were seeded at a density of 4×10^4 cells in 96-well plates pre-coated with FN (5 μg/mL, Sigma, #F1141), and blocked using 1% BSA (Sigma, #A9647) in PBS in the presence of selected compounds diluted at the specified concentrations, in serum free media. After 45 minutes, unattached cells were washed using PBS containing 1 mM MgCl2(Sigma, #M8266) and adherent cells were quantified in a SpectraMaxGeminiXS fluorescence plate reader (Molecular Devices, Palo Alto, Calif.) at 530 nm wavelength. Experiments were performed inquadruplicate and repeated at least twice.

Series [2] addresses T1, purified TG2 (UniProt P08587).
T1 construct: purchased Sigma T5398
The following applies: not shown, see ref 11; cited from earlier work.

Series [3] relates to SKOV3 cells. The following applies: cited from earlier work.
In series [4] the test system is TG2 co-localization with integrin β1, p-FAK, c-Src, p-c-Src in SKOV3 cells. Nature of the series: Confocal IF co-localization analysis. In kind it is cell-based. To be noted: 1 μM. How it is done: In order to analyze cell adhesion complex proteins expression and localization upon early attachment, cells were treated as stated above and then seeded onto FN-coated cover slips for 30 minutes at 37° C. Samples were fixed in 4% p-formaldehyde (PFA) and permeabilized with 0.2% Triton-X-100. After blocking, focal contacts were identified by using anti-vinculin antibodies, activation of integrins signaling pathway was assessed by antibodies against phosphorylated focal adhesion kinase (FAK), while actin cytoskeleton was labeled by Alexa Fluor 488-conjugated phalloidin (Life Technologies, #A12379). Nuclei were stained with 1:10000 Hoechst (Thermo Scientific) and specimens were mounted in Prolong Gold anti-fadereagent (Life Technologies). Cells were analyzed by laser scanning using a Nikon A1RGaAsPConfocal Laser Microscope. For co-localization analyses, SKOV3 cells were treated with DMSO (control) or TG53 (1 μM) and plated on FN-coated chamber slides (BD Biosciences) for 72 hrs. […] Colocalization percentage was calculated by normalizing the pixels corresponding to Cy5 or Alexa Fluor 488 emissions to DAPI pixels in the same cell, followed by merging area of green with area of red and determination of average of overlap areas. A Student' t test was calculated to determine statistical significance of differences between drug treated and DMSO control treated cells.

Series [5] deals with OVCAR5 cells adhesion to FN. Nature of the series: Solid phase adhesion assay to FN, OVCAR5. In kind it is cell-based, human. Details: inhibition of adhesion to FN relative to TG53: dose or concentration left out as unconfirmed. Here is the method:
as §1

In series [6] the test system is OVCAR433 cells adhesion to FN. Nature of the series: Solid phase adhesion assay to FN, OVCAR433. In kind it is cell-based. Also noted: inhibition of adhesion to FN relative to TG53: dose or concentration left out as unconfirmed. Here is the method: as §1
In series [7] the test system is FN45-TG2 interaction. Kind of series: Bio-layer interferometry (BLI) of FN45-TG2 binding. How it is done: The 45 kDa fibronectin fragment (FN45) corresponding to the TG2 binding region (Sigma, # F0162) was biotinylated using Biotin (Type A) Fast Conjugation Kit (Abcam, # ab201795). Biotinylated FN45 (10 μg/mL in PBS) was captured on pre-hydrated streptavidin-coated sensors (Pall Forte Bio SAX 18-5117). At each TG2 concentration, the binding kinetics were determined by following this sequence run: baseline (PBS for 30 s), association step (varying concentrations of TG2 in PBS for 120 s), and dissociation step (PBS for 120 s). A new FN45 biosensor was prepared for each run. To analyze the effect of the inhibitor MT4 on the interaction between TG2 and FN, a solution of 20 μg/mL of bio-FN45 was used for capturing FN45 on the streptavidin-coated sensors and the association step was 90 s. For each sensor, the capturing step was measured in real-time in order to assess the stability of the signal and the reproducibility between sensors. The saturation level Rmax was 0.6 (+0.08) for all sensors and no dissociation of the biotinylated FN45 was observed over 60 minutes. […] For the experiments with (TG2+MT4), controls were performed at each MT4 concentration and Rmax values were corrected for non-specific binding and any effects of DMSO on the TG2-FN45 interaction (these effects were below 8%). All BLI experiments were performed at 22° C. Data fitted globally using the BLItz Pro 1.10.31 software package as described(14, 15). Isothermal titration calorimetry (ITC) was performed at 25° C. by titrating 160 μM MT4 into a 10 μM solution of TG2 (Sigma, #T5398).

Series [8] concerns SKOV3 cells adhesion onto LP9 monolayers. Nature of the series: Cell adhesion to LP9 mesothelial monolayers, SKOV3. In kind it is cell-based. The following applies: 25 μM. Here is the method:
(§2) LP9 mesothelial cells added to clear-bottom 96-well plate at 12,000 cells/well were grown to confluency over 48 hours (h). OC cells were labeled with calcein AM and seeded at a density of 4×10^4 cells to monolayers of mesothelial cells and incubated for 1 h. Non-adherent cells were removed by washing with PBS.

Series [9] deals with OVCAR433 cells adhesion onto LP9 monolayers. Kind of series: Cell adhesion to LP9 mesothelial monolayers, OVCAR433. Format: cell-based. To be noted: at concentrations >10 μM. How it is done:
as §2

T1 sequence (P08587 whole entry): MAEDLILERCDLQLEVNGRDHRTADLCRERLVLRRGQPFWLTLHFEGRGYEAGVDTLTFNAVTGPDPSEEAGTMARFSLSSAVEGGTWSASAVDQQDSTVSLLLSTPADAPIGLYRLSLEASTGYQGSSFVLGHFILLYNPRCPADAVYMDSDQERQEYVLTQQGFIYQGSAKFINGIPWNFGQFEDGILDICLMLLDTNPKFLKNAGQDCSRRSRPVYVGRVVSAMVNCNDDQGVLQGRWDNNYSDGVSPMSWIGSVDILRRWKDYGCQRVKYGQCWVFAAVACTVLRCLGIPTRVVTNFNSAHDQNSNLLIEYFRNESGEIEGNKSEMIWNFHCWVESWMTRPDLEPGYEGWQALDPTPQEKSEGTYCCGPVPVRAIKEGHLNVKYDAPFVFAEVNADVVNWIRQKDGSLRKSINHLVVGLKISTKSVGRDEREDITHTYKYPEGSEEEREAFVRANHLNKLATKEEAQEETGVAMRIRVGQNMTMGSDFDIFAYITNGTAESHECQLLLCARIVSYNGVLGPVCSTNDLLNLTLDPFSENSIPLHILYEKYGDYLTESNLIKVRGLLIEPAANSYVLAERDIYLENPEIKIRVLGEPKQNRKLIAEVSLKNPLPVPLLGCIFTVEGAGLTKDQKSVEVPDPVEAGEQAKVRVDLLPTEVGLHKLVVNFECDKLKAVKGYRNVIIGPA

On to `COc1ccc(Cl)cc1C(=O)Nc1ccc(Nc2nc(C)cc(N(C)C)n2)cc1` [TG53], for which the adhesion to collagen result in series [1] was “did not inhibit”. In series [2], the TG2 enzymatic activity result is reported as “did not inhibit”. For the same molecule, in series [3], the cytotoxicity result is reported as “not cytotoxic”. Also, in series [4], the “FAK and Src phosphorylation” value is “marked decrease”; the “colocalization of TG2 with integrin β1, pFAK, c-Src and pSrc” value was “significant decrease”.

As for `Cc1cc(N(C)C)nc(Nc2ccc(NC(=O)Cc3ccccc3)cc2)n1` [MT-4], the “inhibition of adhesion to FN relative to TG53” value in series [5] and in series [6] was “more active than TG53” throughout. Besides, the “cell adhesion to FN, dose dependence” value in series [5] (2 μM-25 μM) and in series [6] (2 μM-25 μM) was “dose-dependent inhibitory effect” in each case. The “FN45 and rTG2 complex formation” value in series [7] (FN45 on sensors incubated with MT4, 16 nM to 500 μM, 15, 30, 45 minutes) is listed as “not affected”. For the same molecule, the “dissociation of FN45-TG2” value in series [7] (TG2 pre-incubated with MT4) is on record as “faster dissociation”. Also, the “association between FN45 and rTG2” value in [7] (rTG2 incubated with MT4 prior to BLI) was “Dose-dependent inhibition”. Further, the “SKOV3 cell binding to the mesothelial layer” value in [8] is given as “significantly decreased”. Besides, in series [9], the “OVCAR433 adhesion to the LP9 layer” value is recorded as “dose-dependent inhibitory effect”.
